Laboratory results reported in US20080096963A1, “Use Of A Fatty Acid For Preparing A Topical Composition For Allaying Inflammatory Reaction Due To Vennemous Hymenoptera Strings” (CEREP, priority 2004, published 2008).

Molecular target: bee venom PLA2 (Apis mellifera, UniProt P00630)
Type: biochemical
Settings: pH 9

Sequence of bee venom PLA2 (P00630 34-167 limits assumed): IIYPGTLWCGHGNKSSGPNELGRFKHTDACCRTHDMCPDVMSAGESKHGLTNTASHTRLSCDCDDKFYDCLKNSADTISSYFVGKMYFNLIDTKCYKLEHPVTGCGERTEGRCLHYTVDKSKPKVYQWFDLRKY

Compound | inhibition of the enzymatic activity of bee venom PLA2
CCCCC/C=C\C/C=C\CCCCCCCC(=O)O [linoleic acid, linoleic (cis,cis-Δ^9-,Δ^12-octadecadienoic) acid] | inhibit the enzymatic activity of bee venom PLA2 in a dose-dependent manner
CCCCCCCC/C=C\CCCCCCCC(=O)O [oleic acid, oleic (cis-Δ^9-octadecenoic) acid] | inhibit the enzymatic activity of bee venom PLA2 in a dose-dependent manner
